The source of these data is PubChem BioAssay AID248 (DTP/NCI, 2004).

For the assay, the system named is L1210 leukemia ip in BDF1 mice, survival T/C. As to the kind of experiment: NCI In Vivo Anticancer Drug Screen. Data for tumor model L1210 Leukemia (intraperitoneal) in B6D2F1 (BDF1) mice. Conditions: endpoint: mean survival time, schedule: Q01DX001 (ip), vehicle: other, higher = longer survival. The method, boiled down:
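Tumor cells were implanted, animals were treated, and survival was followed. The result divides the treated measurement by the vehicle-control measurement.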

Toxic doses and inconclusive results are not listed.

As to `O=C1/C(=C/c2ccc3c(c2)OCO3)C2CCC(N2)/C1=C\c1ccc2c(c1)OCO2`, the T/C by setting is: (dose: 100.0 mg/kg/injection) 89 % of control; (dose: 400.0 mg/kg/injection) 101 % of control.
